Data set [1] concerns production of signal molecules HHQ and PQS. The note with it: at 15 μM; cited from earlier work.
A further data set has as its system pyocyanin production. The note with it: in cellulo; read-out: inhibition of virulence factor pyocyanin production IC50; cited from earlier work.
Data set [2] addresses T1, PqsR (Pseudomonas aeruginosa, UniProt Q9I4X0). Details: expressed in transfected cells; host or cells: Escherichia coli DH5α. The following applies: read-out: IC50 in E. coli reporter gene assay; cited from earlier work.
For data set [3], the target named is T1, PqsR. Details: host or cells: P. aeruginosa. The note with it: read-out: IC50 in P. aeruginosa reporter gene assay; cited from earlier work.
Data set [4] concerns P. aeruginosa PA14 biofilm. Nature of the data set: Biofilm assay, crystal violet staining (biofilm mass). Type of data set: cell-based. The note with it: Pseudomonas aeruginosa, PA14, PPGAS medium, read-out: IC50-value towards biofilm formation. As to the method: (§1) Commonly used crystal violet (CV) assay procedures (PMID: 3905855, PMID: 10547784, PMID: 22488868) were adapted for determination of biofilm mass. For the cultivation of biofilm in 96 well plates, the protocol described by Frei et al. (PMID: 22488868) was slightly modified by replacement of medium and Pseudomonas strain used. The experiment was performed using P. aeruginosa PA14 strain and PPGAS medium. CV staining was used to detect compound effects on the overall biofilm biomass. Impact on eDNA was assessed by incubation of biofilm with propidium iodine solution (0.05 mg ml^−1) for 24 h and detection of specific florescence at 620 nm (excitation 544 nm) after a thorough washing step with 18 MΩ H2O. (PMID: 16430688)

For data set [5], the system named is eDNA content of P. aeruginosa PA14 biofilm. Put plainly: Biofilm assay, eDNA content (propidium iodine). The following applies: Pseudomonas aeruginosa; PA14, propidium iodine fluorescence; read-out: IC50-value towards eDNA content of the biofilm. It counts as cell-based. How it is done:
as §1

The nature of data set [6]: Metabolic stability against human hepatic S9 fraction. Type of data set: in vitro ADME. The following applies: pooled human liver S9 fraction; 1 μM compound, 1 mg/mL pooled human liver S9, phase I and II cofactors, 37° C.; read-out: half-life (t1/2) towards human hepatic S9 fraction. How it is done:
For the evaluation of combined phase I and phase II metabolic stability, the compound (1 μM) was incubated with 1 mg/mL pooled human liver S9 fraction (BD Gentest), 2 mM NADPH regenerating system, 1 mM UDPGA, 10 mM MgCl2 and 0.1 mM PAPS at 37° C. for 0, 5, 15, 30 and 60 min. The metabolic stability of Testosterone (1 μM) and 7-hydroxycoumarin (1 μM) were determined in parallel to confirm the enzymatic activity of the S9 fraction. The incubation was stopped by precipitation of S9 enzymes with 2 volumes of cold acetonitrile containing internal standard (750 nM Diphenhydramine). Samples were stored on ice for 10 min and precipitated protein was removed by centrifugation (10 min, 4° C., 17,000 g). Concentration of the remaining test compound at the different time points was analyzed by LC-MS/MS (TSQ Quantum Access MAX, Thermo Fisher, Dreieich, Germany) and used to determine half-life (t/2).

A further data set deals with HEK293 cells. Nature of the data set: Cytotoxicity (MTT) toward HEK293. It counts as cell-based. The following applies: Homo sapiens, 48 h, upper class: or at solubility maximum, read-out: IC50-value towards HEK293. How it is done:
(§2) To obtain information regarding the toxicity of our compounds, their impact on the viability of human cells was investigated. HepG2 and HEK293 cells (2×10^5 per well) were seeded in 24-well, flat-bottomed culture plates. 24 h after seeding the cells the incubation was started by the addition of compounds in a final DMSO concentration of 1%. The living cell mass was determined 48 h after treatment with compounds by adding 0.1 volumes of 3-(4,5-dimethylthiazol-2-yl)-2,5-diphenyltetrazolium bromide (MTT) solution (5 mg per mL sterile PBS) (Sigma, St. Louis, MO) to the wells. After incubating the cells for 30 min at 37° C. (atmosphere containing 5% CO2), MTT crystals were dissolved in a solution containing 10% SDS and 0.5% acetic acid in DMSO. The optical density (OD) of the samples was determined photometrically at 570 nm in a FLUOstar Omega plate reader (BMG labtech, Ortenberg, Germany). To obtain inhibition values for each sample, their ODs were related to those of DMSO controls.

For data set [7], the system named is P. aeruginosa pyocyanin production. Put plainly: Pyocyanin assay. It counts as cell-based, P. aeruginosa PA14. The note with it: Pseudomonas aeruginosa, PA14, 16 h, read-out: IC50-value towards pyocyanin production, PA14 in PPGAS medium, 16 h. In short, it runs like this:
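PA14 in PPGAS medium from OD600 0.02 grown 16 h at 37 °C, 200 rpm, with compounds. Pyocyanin extracted with chloroform, back-extracted into 0.2 M HCl, OD520 normalised to OD600.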

Data set [8] deals with T1, PqsR. Put plainly: E. coli based β-galactosidase reporter gene assay (PqsR inverse agonistic activity). It counts as cell-based. On the set-up: expressed in transfected cells; host or cells: Escherichia coli DH5α. Summed up: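 E. coli DH5α carrying pEAL08-2 (tac-driven pqsR with pqsA-lacZ) was grown to OD600 0.2 and incubated with 0.001–10 μM compound plus 50 nM PQS for 2.5 h at 37 °C. β-Galactosidase activity was measured by ONPG conversion in permeabilized cells and normalized between the no-PQS and solvent controls. IC50 came from concentration variation.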

The next data set relates to HepG2 cells. Nature of the data set: Cytotoxicity (MTT) toward HepG2. It counts as cell-based. The note with it: Homo sapiens, 48 h, upper class: or at solubility maximum, read-out: IC50-value towards HepG2. As to the method: as §2
Data set [9] can be described thus: Turbidimetric Aqueous Solubility at 37° C. for 2 h. Type of data set: physicochemical. The following applies: aqueous buffer, kinetic from dmso stock, 1% DMSO in buffer, estimated precipitation range. How it is done:
Turbidimetric Aqueous Solubility at 37° C. for 2 h. Test compound was diluted in buffer to give a range of concentrations (typically 1, 3, 10, 30 and 100 μM, final DMSO concentration 1%) and incubated at 37° C. for 2 hr. Absorbance was measured at a wavelength of 620 nm and the solubility was estimated from the concentration of test compound that produces an increase in absorbance above the vehicle control (i.e., 1% DMSO in buffer). An estimated precipitation range (lower and upper bound) was provided as result.

A short description of data set [10]: Kinetic Turbidimetric Aqueous Solubility at room temperature for 5 min. Type of data set: physicochemical. The note with it: PBS buffer, kinetic from dmso stock, 2% DMSO. Summed up: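 Compound diluted in PBS across typically 0.4–200 μM (final DMSO 2%), held 5 min at room temperature. Turbidity read as absorbance at 620 nm against vehicle control. Four-parameter sigmoidal fit of normalized absorbances with AUC calculation gives Log S.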

The structures appear in SMILES notation. Values after ≈ are worked out from the molar mass of the structure shown. Read-outs that look alike come from different tables or passages of the source.

T1 sequence (Q9I4X0 whole entry): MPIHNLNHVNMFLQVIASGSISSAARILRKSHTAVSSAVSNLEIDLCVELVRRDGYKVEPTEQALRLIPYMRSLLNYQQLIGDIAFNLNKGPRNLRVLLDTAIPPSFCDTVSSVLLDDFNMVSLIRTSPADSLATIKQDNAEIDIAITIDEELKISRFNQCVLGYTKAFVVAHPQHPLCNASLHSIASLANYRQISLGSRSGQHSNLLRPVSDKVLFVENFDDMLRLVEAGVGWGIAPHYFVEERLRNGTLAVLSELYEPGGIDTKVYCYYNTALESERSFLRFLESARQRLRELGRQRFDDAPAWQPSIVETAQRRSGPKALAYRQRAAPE

Regarding `CCCCCCCc1[nH]c2ccc([N+](=O)[O-])cc2c(=O)c1C(N)=O` [2-heptyl-6-nitro-4-oxo-1,4-dihydroquinoline-3-carboxamide], the “reduction of HHQ production” value in data set [1] was 54%. Further, the “reduction of PQS production” value in data set [1] is 37%. The IC50 was 2000 nM in the data set on pyocyanin production, 35 nM on PqsR [2] and 400 nM on PqsR [3].

Take `FC(F)(F)c1cc(NCc2cn(-c3ccc(Oc4ccccc4)cc3)nn2)ccn1` [Compound 001, N-((1-(4-Phenoxyphenyl)-1H-1,2,3-triazol-4-yl)methyl)-2-(trifluoromethyl) pyridin-4-amine]: the IC50 in data set [4] was at most 500 nM; in [5] it was under 500 nM; in the data set on HEK293 cells it was 25 to 50 µM; in [7], at most 250 nM; at PqsR [8] it was at most 50 nM; in the data set on HepG2 cells, 25 to 50 µM. Also, in [6], the half-life at 1 μM was in the range of 41 to 60 min.

As to `COc1ccc(-n2cc(CNc3ccnc(C(F)(F)F)c3)nn2)cc1Cl` [Compound 017, N-((1-(3-chloro-4-methoxyphenyl)-1H-1,2,3-triazol-4-yl)methyl)-2-(trifluoromethyl)pyridin-4-amine], in [9], the solubility at 2 h is 10 to 30 µM (≈ 3.84 to 11.5 µg/mL). Also, the IC50 was at most 500 nM in data set [4], 251 to 1000 nM in data set [7] and at most 50 nM on PqsR [8]. For the same molecule, the solubility at 5 min in data set [10] was over 50 µM. Besides, the half-life at 1 μM in data set [6] is 41 to 60 min.

Source of the values: US11883387B2, “PqsR inverse agonists” (HELMHOLTZ-ZENTRUM FÜR INFEKTIONSFORSCHUNG GMBH, priority 2018, dated 2024).
